Columns and labels:
[1] = system: spontaneously hypertensive male rats, strain MHS; assay: Anti-hypertensive activity in spontaneously hypertensive rats (MHS), blood pressure and heart rate measured at the tail; assay type: in vivo, rat (spontaneously hypertensive; settings: MHS rats; for Change in BP, 1st day, 1 hr after dose / Change in HR, 1st day, 1 hr after dose / Change in BP, 1st day, 5 hrs after dose / Change in HR, 1st day, 5 hrs after dose / Change in BP, 4th day, 1 hr after dose / Change in HR, 4th day, 1 hr after dose / Change in HR, 4th day, 5 hrs after dose / Change in BP, 4th day, 5 hrs after dose: mean of 4 animals; for Activity compared with Hydralazine and α-methyl-DOPA: 5 mg/kg per os, vs Hydralazine (3 mg/kg per os) and α-methyl-DOPA; for Activity compared with Hydralazine and α-methyl-DOPA / Effect on blood pressure: 1st and 4th day; for Tolerance after repeated administration: four days, 355/1165 2 mg/kg, 355/1226 3 mg/kg, 355/1225 and 355/1229 5 mg/kg per os
Procedure: Four spontaneously hypertensive male rats, strains MHS, weighing 250-300 g for each group were used.
The animals were treated for four consecutive days. Drugs were administered by gastric gavage, suspended in 5% arabic gum (0.2 ml/100 g body weight). Blood pressure (BP) and heart rate (HR) were measured at the tail by BP Recorder W+W. Blood pressure and heart rate were measured on the 1st and 4th day of treatment 1 hour before and 1 and 5 hours after drug administration.
*Data of LD50 from the literature. In Tables 1 and 2 are reported
the results of the study of the activity of compounds 355/1165 and
355/1166 upon the BP and HR (measured indirectly by means of a tail cuff)
of spontaneous hypertensive rats, MHS strain (4 rats each group). The
compounds were given orally, once a day for 4 consecutive days.

[2] = Acute (orientative) oral toxicity in mice; settings: mouse, in vivo
Source text: The male mice for each group were orally treated with drugs at different dose levels for the determination of orientative toxicity.

[3] = system: spontaneously hypertensive rats (Okamoto strain); assay: Anti-hypertensive activity in conscious spontaneously hypertensive rats (Okamoto), carotid artery catheter; assay type: in vivo, rat (spontaneously hypertensive; settings: 3 mg/kg os, mean of 6 animals
Procedure: Blood pressure recordings were made in conscious hypertensive unrestrained rats weighing approximately 300 g, via a catheter cronically inserted into the left common carotid artery. Implantation of arterial cannula was made under sodium pentobarbital anesthesia (50 mg/kg i.p.). A 1 cm long incision was made through the previously shaved ventral surface of the neck and the tissues overlying the trachea parted by blunt dissection to reveal the carotid artery. The polyethylene catheter used was made with PE 50 tubing, previously filled with saline containing 250 I.U./ml heparin. The tip of the cannula was pushed at least 2 cm inside the vessel toward the heart. The cannula was then firmly tied and passed beneath the skin to emerge from a small incision in the back of the neck. During the postoperative period and before the start of each recording session, the cannula was flushed through daily with saline containing heparin (250 U.I./ml). The experiments were performed two days after surgery. Drugs were administered by gastric gavage.

SMILES | Change in BP, 1st day, 1 hr after dose ([1]; 1 mg/kg os) [mmHg] | Change in HR, 1st day, 1 hr after dose ([1]; 1 mg/kg os) | Change in BP, 1st day, 5 hrs after dose ([1]; 1 mg/kg os) [mmHg] | Change in HR, 1st day, 5 hrs after dose ([1]; 1 mg/kg os) | Change in BP, 4th day, 1 hr after dose ([1]; 1 mg/kg os) | Change in HR, 4th day, 1 hr after dose ([1]; 1 mg/kg os) | Change in HR, 4th day, 5 hrs after dose ([1]; 1 mg/kg os) | Change in BP, 1st day, 1 hr after dose ([1]; 5 mg/kg os) [mmHg] | Change in HR, 1st day, 1 hr after dose ([1]; 5 mg/kg os) [b/min] | Change in BP, 1st day, 5 hrs after dose ([1]; 5 mg/kg os) [mmHg] | Change in HR, 1st day, 5 hrs after dose ([1]; 5 mg/kg os) [b/min] | Change in BP, 4th day, 1 hr after dose ([1]; 5 mg/kg os) [mmHg] | Change in HR, 4th day, 1 hr after dose ([1]; 5 mg/kg os) [b/min] | Change in BP, 4th day, 5 hrs after dose ([1]; 5 mg/kg os) [mmHg] | Change in HR, 4th day, 5 hrs after dose ([1]; 5 mg/kg os) [b/min] | Activity compared with Hydralazine and α-methyl-DOPA [1] | Effect on blood pressure ([1]; 1 and 5 mg/kg orally) | Tolerance after repeated administration [1] | LD50 at 168 h [2] [mg/kg] | Change in BP, 4th day, 5 hrs after dose ([1]; 1 mg/kg os) | other results
CN1CC(CC(C#N)C(N)=O)C2=Cc3cccc4[nH]cc(c34)CC21 (stereo not drawn) [355/1229, 2-Cyano-3-[5(10→9)abeo-9,10-didehydro-6-methyl-ergoline-8β]-propionamide] | -26 | +25 b/min | -19 | -2 b/min | -21 mmHg | -18 b/min | -53 b/min | -26 | -40 | -20 | -35 | -36 | -50 | -45 | -55 | greater activity | both dosages reduce BP in a similar way on the 1st day, when during the 4th day the decrease of BP is dose-dependent | No tolerance occurs | 600 |  | 
CN1CC(CCC#N)C2Cc3cccc4[nH]cc(c34)CC21 (stereo not drawn) [355/1225, Trans-5(10→9)abeo-6-methyl-ergoline-8β-propionitrile] | -28 | +5 b/min | -17 | -22 b/min | -34 mmHg | -40 b/min | -43 b/min | -67 | -32 | -42 | -4 | -34 | -55 | -21 | -59 | greater activity | reduces blood pressure in dose-dependent manner on both the 1st and 4th day of treatment | No tolerance occurs | 600 | -21 mmHg | Time of peak effect on blood pressure ([1]; 1 and 5 mg/kg orally): one hour after dosing
NNc1nncc2ccccc12 [Hydralazine, reference compound] | 0 | +20 b/min | -10 | +25 b/min | +7 mmHg | +30 b/min | +15 b/min |  |  |  |  |  |  |  |  |  |  |  |  | +2 mmHg | Change in BP, 1st day, 1 hr after dose ([1]; 3 mg/kg os): -43 mmHg; Change in HR, 1st day, 1 hr after dose ([1]; 3 mg/kg os): +31 b/min; Change in BP, 1st day, 5 hrs after dose ([1]; 3 mg/kg os): -29 mmHg; Change in HR, 1st day, 5 hrs after dose ([1]; 3 mg/kg os): +34 b/min; Change in BP, 4th day, 1 hr after dose ([1]; 3 mg/kg os): -15 mmHg; Change in HR, 4th day, 1 hr after dose ([1]; 3 mg/kg os): +18 b/min; Change in BP, 4th day, 5 hrs after dose ([1]; 3 mg/kg os): +5 mmHg; Change in HR, 4th day, 5 hrs after dose ([1]; 3 mg/kg os): +13 b/min; Effect on heart rate ([1]; oral, all doses treated (Table 2)): no effect on heart rate; Change in blood pressure after treatment, 30' ([3]; 30'): -25 mmHg; Change in heart rate after treatment, 30' ([3]; 30'): +50 b/min; Change in blood pressure after treatment, 60' ([3]; 60'): -33 mmHg; Change in heart rate after treatment, 60' ([3]; 60'): +21 b/min; Change in blood pressure after treatment, 120' ([3]; 120'): -40 mmHg; Change in heart rate after treatment, 120' ([3]; 120'): +52 b/min; Change in blood pressure after treatment, 240' ([3]; 240'): -29 mmHg; Change in heart rate after treatment, 240' ([3]; 240'): +3 b/min; Change in blood pressure after treatment, 360' ([3]; 360'): -7 mmHg; Change in heart rate after treatment, 360' ([3]; 360'): +3 b/min
